Assay results from ChEMBL document CHEMBL1121908, “Membrane effects of antiinflammatory agents. 1. Interaction of sulindac and its metabolites with phospholipid membrane, a magnetic resonance study” (J Med Chem, 1981).

Tests used:
Type in all cases: subcellular
[1] = test system: Liposome; experiment: The compound was evaluated for percent incorporation in DOPC vesicles, when compound to lipid mol ratio is 0.1
[2] = test system: Liposome; experiment: The compound was evaluated for percent incorporation in DOPC vesicles, when compound to lipid mol ratio is 2
[3] = test system: Liposome; experiment: The compound was evaluated for percent incorporation in DOPC vesicles, when compound to lipid mol ratio is 3.5

| Compound | Incorporation [1] | Incorporation [2] | Incorporation [3] |
| --- | --- | --- | --- |
| CC1=C(CC(=O)O)c2cc(F)ccc2/C1=C\c1ccc([S+](C)[O-])cc1 (stereo not given) | 7% | 5% | – |
| CSc1ccc(/C=C2/C(C)=C(CC(=O)O)c3cc(F)ccc32)cc1 | 74% | 41% | 25% |
